From the supplement of paper PMC10307832

Assays:
Test in all cases: relative viability (nuclei count vs DMSO), 5 days (fraction); higher = more cells survive
Vorinostat + Crizotinib = compound: O=C(CCCCCCC(=O)Nc1ccccc1)NO [Vorinostat] + C[C@@H](Oc1cc(-c2cnn(C3CCNCC3)c2)cnc1N)c1c(Cl)ccc(F)c1Cl [Crizotinib] (partner 1 µM)
Method in brief: (§1)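 Lung cancer cell lines were pin-tool dosed in 1536-well plates on the day after seeding, with either a lone drug or a fixed anchor-drug dose plus five library-drug doses (not always all listed) in √10 steps. Nuclei were counted on 4× images after 5 days. Relative viability is the ratio of treated-well to vehicle-well nuclei counts, with each value a median of duplicate plates.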

Vorinostat + Luminespib = compound: O=C(CCCCCCC(=O)Nc1ccccc1)NO [Vorinostat] + CCNC(=O)c1noc(-c2cc(C(C)C)c(O)cc2O)c1-c1ccc(CN2CCOCC2)cc1 [Luminespib] (partner 0.01 µM)
Method in brief: as §1

Vorinostat + Pictilisib = compound: O=C(CCCCCCC(=O)Nc1ccccc1)NO [Vorinostat] + CS(=O)(=O)N1CCN(Cc2cc3nc(-c4cccc5[nH]ncc45)nc(N4CCOCC4)c3s2)CC1 [Pictilisib] (partner 1 µM)
Method in brief: as §1

Vorinostat + Navitoclax = compound: O=C(CCCCCCC(=O)Nc1ccccc1)NO [Vorinostat] + CC1(C)CCC(c2ccc(Cl)cc2)=C(CN2CCN(c3ccc(C(=O)NS(=O)(=O)c4ccc(N[C@H](CCN5CCOCC5)CSc5ccccc5)c(S(=O)(=O)C(F)(F)F)c4)cc3)CC2)C1 [Navitoclax] (partner 0.5 µM)
Method in brief: as §1

Vorinostat + Trametinib = compound: O=C(CCCCCCC(=O)Nc1ccccc1)NO [Vorinostat] + CC(=O)Nc1cccc(-n2c(=O)n(C3CC3)c(=O)c3c(Nc4ccc(I)cc4F)n(C)c(=O)c(C)c32)c1 [Trametinib] (partner 0.02 µM)
Method in brief: as §1

Row | Cell Line | relative viability (Vorinostat + Crizotinib; first compound 0.253 µM) | relative viability (Vorinostat + Crizotinib; first compound 0.8 µM) | relative viability (Vorinostat + Crizotinib; first compound 2.53 µM) | relative viability (Vorinostat + Crizotinib; first compound 8 µM) | relative viability (Vorinostat + Luminespib; first compound 0.253 µM) | relative viability (Vorinostat + Luminespib; first compound 0.8 µM) | relative viability (Vorinostat + Luminespib; first compound 2.53 µM) | relative viability (Vorinostat + Luminespib; first compound 8 µM) | relative viability (Vorinostat + Pictilisib; first compound 0.253 µM) | relative viability (Vorinostat + Pictilisib; first compound 0.8 µM) | relative viability (Vorinostat + Pictilisib; first compound 2.53 µM) | relative viability (Vorinostat + Pictilisib; first compound 8 µM) | relative viability (Vorinostat + Navitoclax; first compound 0.253 µM) | relative viability (Vorinostat + Navitoclax; first compound 0.8 µM) | relative viability (Vorinostat + Navitoclax; first compound 2.53 µM) | relative viability (Vorinostat + Navitoclax; first compound 8 µM) | relative viability (Vorinostat + Trametinib; first compound 0.253 µM) | relative viability (Vorinostat + Trametinib; first compound 0.8 µM) | relative viability (Vorinostat + Trametinib; first compound 2.53 µM) | relative viability (Vorinostat + Trametinib; first compound 8 µM)
1 | PC-3 [JPC-3] | 0.955 | 0.97 | 0.41 | 0.228 | 0.746 | 0.801 | 0.282 | 0.261 | 0.779 | 0.582 | 0.423 | 0.309 | 0.655 | 0.676 | 0.398 | 0.247 | 0.695 | 0.644 | 0.405 | 0.348
2 | PC-14 | 0.888 | 0.865 | 0.215 | 0.0683 | 0.128 | 0.143 | 0.113 | 0.133 | 0.959 | 0.438 | 0.0673 | 0.0418 | 1.16 | 0.985 | 0.198 | 0.091 | 0.785 | 0.483 | 0.155 | 0.0461
3 | RERF-LC-KJ | 0.813 | 0.744 | 0.448 | 0.156 | 1.22 | 0.883 | 0.308 | 0.278 | 0.562 | 0.474 | 0.182 | 0.164 | 1.25 | 0.754 | 0.251 | 0.291 | 0.897 | 0.732 | 0.308 | 0.201
4 | SK-LU-1 | 0.921 | 0.672 | 0.43 | 0.164 | 0.21 | 0.234 | 0.176 | 0.196 | 0.595 | 0.55 | 0.351 | 0.133 | 0.785 | 0.528 | 0.109 | 0.111 | 0.495 | 0.474 | 0.41 | 0.205
5 | SK-MES-1 | 1.13 | 1.06 | 0.495 | 0.157 | 1.01 | 0.774 | 0.423 | 0.178 | 0.469 | 0.349 | 0.231 | 0.0945 | 1.51 | 1.18 | 0.494 | 0.162 | 0.728 | 0.71 | 0.454 | 0.239
6 | SW 1573 | 0.845 | 0.665 | 0.297 | 0.156 | 0.212 | 0.381 | 0.222 | 0.0808 | 0.543 | 0.45 | 0.24 | 0.0767 | 1.12 | 0.891 | 0.349 | 0.0555 | 0.709 | 0.596 | 0.357 | 0.0536
7 | UMC-11 | 0.578 | 0.481 | 0.0587 | 0.0369 | 1.03 | 0.566 | 0.149 | 0.108 | 0.975 | 0.29 | 0.0923 | 0.0756 | 0.277 | 0.154 | 0.0896 | 0.0856 | 0.845 | 0.245 | 0.0839 | 0.0678
